Laboratory results reported in patent US20120196791A1, “COMBINATION THERAPIES USING ANTIBACTERIAL AMINOGLYCOSIDE COMPOUNDS” (Achaogen, Inc., priority 2009, published 2012).
Read-outs that look alike come from different tables or passages of the source.

How the values were obtained:
S. aureus strains = experiment: MIC by macrodilution; format: cell-based; settings: Staphylococcus aureus
Text: (§1) “MIC”, which stands for minimum inhibitory concentration, refers to that concentration, in μg/mL, of a compound of this invention that inhibits the growth and/or proliferation of a strain of bacteria by at least 80% compared to an untreated control as determined by visual inspection of a liquid culture.
Synergy time-kill was used to test the activity of Example 1, alone and in combination with daptomycin (DAP), ceftobiprole (BPR), and linezolid (LZD), against 25 S. aureus strains. 25 clinical isolates included 2 hVISA, 2 VISA, and 5 VRSA, 10 hospital acquired and 6 community acquired MRSA strains. MICs were determined by macrodilution and time-kill was used to verify the activity of all four agents alone. MICs were predetermined by macrodilution in cation-adjusted Mueller-Hinton broth (BBL Microbiology Systems, Cockeysville, Md.) according to standard methodology. Daptomycin susceptibility testing was performed in Mueller-Hinton broth adjusted to 50 μg/mL of calcium according to standard methodology. All strains were tested by time-kill methodology with each compound alone according to standard methods. Cultures were initiated by adding 35-μL aliquots of suspensions into 5 mL of broth. Viability counts (100-μL aliquots) in synergy tests were performed at 0, 3, 6, 12, and 24 h in a shaking water bath at 35° C. with final inocula of between 5×10^5 and 5×10^6 CFU/mL. Only plates with 30 to 300 colonies were counted.

P. aeruginosa strains = experiment: MIC by macrodilution; format: cell-based; settings: Pseudomonas aeruginosa
Text: as §1
Synergy time-kill was used to test the activity of Example 1, alone and in combination with cefepime, doripenem, imipenem and piperacillin/tazobactam, against 10 P. aeruginosa strains. The 10 clinical isolates included 5 cefepime resistant, 5 doripenem resistant, 8 imipenem resistant, and 9 piperacillin/tazobactam resistant strains. MICs were determined by macrodilution and time-kill was used to verify the activity of all five agents alone. MICs were predetermined by macrodilution in cation-adjusted Mueller-Hinton broth (BBL Microbiology Systems, Cockeysville, Md.) according to standard methodology. All strains were tested by time-kill methodology with each compound alone according to standard methods. Strains were examined by PCR for genes encoding aminoglycoside modifying enzymes (AMEs). Cultures were initiated by adding 35-μL aliquots of suspensions into 5 mL of broth. Viability counts (100-μL aliquots) in synergy tests were performed at 0, 3, 6, 12, and 24 h in a shaking water bath at 35° C. with final inocula of between 5×10^5 and 5×10^6 CFU/mL. Only plates with 30 to 300 colonies were counted.

[1] = ATCC 33591 / MRSA, Strain 13, ATCC33591 HA-MRSA, read-out: MIC
[2] = MRSA, Strain 6, CA-MRSA, PVL+, read-out: MIC
[3] = MRSA, Strain 7, CA-MRSA, PVL+, read-out: MIC
[4] = MRSA, Strain 8, CA-MRSA, PVL+, read-out: MIC
[5] = MRSA, Strain 14, HA-MRSA, read-out: MIC
[6] = MRSA, Strain 15, HA-MRSA, read-out: MIC
[7] = MRSA, Strain 16, HA-MRSA, read-out: MIC
[8] = MRSA, Strain 17, HA-MRSA, read-out: MIC
[9] = MRSA, Strain 18, HA-MRSA, read-out: MIC
[10] = MRSA, Strain 19, HA-MRSA, read-out: MIC
[11] = MRSA, Strain 20, HA-MRSA, read-out: MIC
[12] = MRSA, Strain 21, HA-MRSA, read-out: MIC
[13] = MRSA, Strain 22, HA-MRSA, read-out: MIC
[14] = MRSA, Strain 23, CA-MRSA PVL+, read-out: MIC
[15] = MRSA, Strain 24, CA-MRSA PVL+, read-out: MIC
[16] = MRSA, Strain 25, CA-MRSA PVL neg, read-out: MIC
[17] = Strain 10, hVISA, read-out: MIC
[18] = VISA, Strain 11, VISA, read-out: MIC
[19] = VISA, Strain 12, VISA, read-out: MIC
[20] = VRSA, Strain 1, VRSA, read-out: MIC
[21] = VRSA, Strain 2, VRSA, read-out: MIC
[22] = VRSA, Strain 3, VRSA, read-out: MIC
[23] = VRSA, Strain 4, VRSA, read-out: MIC
[24] = VRSA, Strain 5, VRSA, read-out: MIC
[25] = range over 25 S. aureus strains, read-out: MICs of each agent alone

**Q.** How did the MIC (S. aureus strains; [1]) turn out when CC(=O)NC[C@H]1CN(c2ccc(N3CCOCC3)c(F)c2)C(=O)O1 [Linezolid, linezolid] was run?
**A.** 2 µg/mL

**Q.** What about the MIC (S. aureus strains; [2]) of the same molecule?
**A.** 4 µg/mL

**Q.** What about the MIC (S. aureus strains; [3]) of the same molecule?
**A.** 4 µg/mL

**Q.** And the MIC (S. aureus strains; [4])?
**A.** 2 µg/mL

**Q.** What about the MIC (S. aureus strains; [5]) of the same molecule?
**A.** 4 µg/mL

**Q.** What about the MIC (S. aureus strains; [6]) of the same molecule?
**A.** 4 µg/mL

**Q.** What about the MIC (S. aureus strains; [7]) of the same molecule?
**A.** 4 µg/mL

**Q.** And the MIC (S. aureus strains; [8])?
**A.** 4 µg/mL

**Q.** What about the MIC (S. aureus strains; [9]) of the same molecule?
**A.** 4 µg/mL

**Q.** And the MIC (S. aureus strains; [10])?
**A.** 4 µg/mL

**Q.** And the MIC (S. aureus strains; [11])?
**A.** 4 µg/mL

**Q.** And the MIC (S. aureus strains; [12])?
**A.** 4 µg/mL

**Q.** What about the MIC (S. aureus strains; [13]) of the same molecule?
**A.** 4 µg/mL

**Q.** What about the MIC (S. aureus strains; [14]) of the same molecule?
**A.** 4 µg/mL

**Q.** And the MIC (S. aureus strains; [15])?
**A.** 4 µg/mL

**Q.** And the MIC (S. aureus strains; [16])?
**A.** 4 µg/mL

**Q.** What about the MIC (S. aureus strains; Strain 9, hVISA, read-out: MIC) of the same molecule?
**A.** 4 µg/mL

**Q.** What about the MIC (S. aureus strains; [17]) of the same molecule?
**A.** 2 µg/mL

**Q.** What about the MIC (S. aureus strains; [18]) of the same molecule?
**A.** 2 µg/mL

**Q.** And the MIC (S. aureus strains; [19])?
**A.** 4 µg/mL

**Q.** What about the MIC (S. aureus strains; [20]) of the same molecule?
**A.** 2 µg/mL

**Q.** What about the MIC (S. aureus strains; [21]) of the same molecule?
**A.** 4 µg/mL

**Q.** And the MIC (S. aureus strains; [22])?
**A.** 2 µg/mL

**Q.** And the MIC (S. aureus strains; [23])?
**A.** 4 µg/mL

**Q.** And the MIC (S. aureus strains; [24])?
**A.** 2 µg/mL

**Q.** And the MIC (S. aureus strains; [25])?
**A.** 2 to 4 µg/mL

**Q.** What does the source list for CO/N=C(\C(=O)N[C@@H]1C(=O)N2C(C(=O)[O-])=C(C[N+]3(C)CCCC3)CS[C@H]12)c1csc(N)n1 [Cefepime, cefepime]?
**A.** MIC (P. aeruginosa strains): 256 µg/mL; MIC (P. aeruginosa strains; Strain 1, read-out: MIC): 16 µg/mL; MIC (P. aeruginosa strains; Strain 2, read-out: MIC): 4 µg/mL; MIC (P. aeruginosa strains; Strain 3, read-out: MIC): 8 µg/mL; MIC (P. aeruginosa strains; Strain 4, read-out: MIC): 8 µg/mL; MIC (P. aeruginosa strains; Strain 5, read-out: MIC): 32 µg/mL; MIC (P. aeruginosa strains; Strain 6, read-out: MIC): 1 µg/mL; MIC (P. aeruginosa strains; Strain 7, read-out: MIC): 16 µg/mL; MIC (P. aeruginosa strains; Strain 8, read-out: MIC): 4 µg/mL; MIC (P. aeruginosa strains; Strain 9, read-out: MIC): 32 µg/mL; MIC (P. aeruginosa strains; range over 10 P. aeruginosa strains, read-out: MICs of each agent alone): 1 to 256 µg/mL

**Q.** Which MIC (S. aureus strains; [1]) does the source give for CCCCCCCCCC(=O)N[C@@H](Cc1c[nH]c2ccccc12)C(=O)N[C@H](CC(N)=O)C(=O)N[C@@H](CC(=O)O)C(=O)N[C@@H]1C(=O)NCC(=O)N[C@@H](CCCN)C(=O)N[C@@H](CC(=O)O)C(=O)N[C@H](C)C(=O)N[C@@H](CC(=O)O)C(=O)NCC(=O)N[C@H](CO)C(=O)N[C@@H]([C@H](C)CC(=O)O)C(=O)N[C@@H](CC(=O)c2ccccc2N)C(=O)O[C@@H]1C [Daptomycin, daptomycin] here?
**A.** 0.5 µg/mL

**Q.** And the MIC (S. aureus strains; [2])?
**A.** 0.5 µg/mL

**Q.** And the MIC (S. aureus strains; [3])?
**A.** 0.5 µg/mL

**Q.** What about the MIC (S. aureus strains; [4]) of the same molecule?
**A.** 0.5 µg/mL

**Q.** What about the MIC (S. aureus strains; [5]) of the same molecule?
**A.** 0.25 µg/mL

**Q.** And the MIC (S. aureus strains; [6])?
**A.** 0.5 µg/mL

**Q.** And the MIC (S. aureus strains; [7])?
**A.** 1 µg/mL

**Q.** What about the MIC (S. aureus strains; [8]) of the same molecule?
**A.** 0.5 µg/mL

**Q.** What about the MIC (S. aureus strains; [9]) of the same molecule?
**A.** 0.5 µg/mL

**Q.** And the MIC (S. aureus strains; [10])?
**A.** 0.5 µg/mL

**Q.** And the MIC (S. aureus strains; [11])?
**A.** 0.5 µg/mL

**Q.** What about the MIC (S. aureus strains; [12]) of the same molecule?
**A.** 0.5 µg/mL

**Q.** And the MIC (S. aureus strains; [13])?
**A.** 0.5 µg/mL

**Q.** What about the MIC (S. aureus strains; [14]) of the same molecule?
**A.** 1 µg/mL

**Q.** And the MIC (S. aureus strains; [15])?
**A.** 0.5 µg/mL

**Q.** What about the MIC (S. aureus strains; [16]) of the same molecule?
**A.** 0.5 µg/mL

**Q.** And the MIC (S. aureus strains; Strain 9, hVISA, read-out: MIC)?
**A.** 1 µg/mL

**Q.** What about the MIC (S. aureus strains; [17]) of the same molecule?
**A.** 0.5 µg/mL

**Q.** And the MIC (S. aureus strains; [18])?
**A.** 4 µg/mL

**Q.** What about the MIC (S. aureus strains; [19]) of the same molecule?
**A.** 2 µg/mL

**Q.** And the MIC (S. aureus strains; [20])?
**A.** 0.5 µg/mL

**Q.** And the MIC (S. aureus strains; [21])?
**A.** 0.25 µg/mL

**Q.** And the MIC (S. aureus strains; [22])?
**A.** 0.5 µg/mL

**Q.** What about the MIC (S. aureus strains; [23]) of the same molecule?
**A.** 0.5 µg/mL

**Q.** And the MIC (S. aureus strains; [24])?
**A.** 0.25 µg/mL

**Q.** And the MIC (S. aureus strains; [25])?
**A.** 0.25 to 4 µg/mL

**Q.** How did the MIC (S. aureus strains; [1]) turn out when Nc1nc(/C(=N/O)C(=O)N[C@@H]2C(=O)N3C(C(=O)O)=C(/C=C4\CCN([C@@H]5CCNC5)C4=O)CS[C@H]23)ns1 [Ceftobiprole, ceftobiprole] was run?
**A.** 2 µg/mL

**Q.** And the MIC (S. aureus strains; [2])?
**A.** 1 µg/mL

**Q.** What about the MIC (S. aureus strains; [3]) of the same molecule?
**A.** 1 µg/mL

**Q.** And the MIC (S. aureus strains; [4])?
**A.** 1 µg/mL

**Q.** What about the MIC (S. aureus strains; [5]) of the same molecule?
**A.** 2 µg/mL

**Q.** What about the MIC (S. aureus strains; [6]) of the same molecule?
**A.** 1 µg/mL

**Q.** What about the MIC (S. aureus strains; [7]) of the same molecule?
**A.** 2 µg/mL

**Q.** And the MIC (S. aureus strains; [8])?
**A.** 2 µg/mL

**Q.** And the MIC (S. aureus strains; [9])?
**A.** 1 µg/mL

**Q.** What about the MIC (S. aureus strains; [10]) of the same molecule?
**A.** 1 µg/mL

**Q.** What about the MIC (S. aureus strains; [11]) of the same molecule?
**A.** 2 µg/mL

**Q.** What about the MIC (S. aureus strains; [12]) of the same molecule?
**A.** 1 µg/mL

**Q.** What about the MIC (S. aureus strains; [13]) of the same molecule?
**A.** 2 µg/mL

**Q.** What about the MIC (S. aureus strains; [14]) of the same molecule?
**A.** 1 µg/mL

**Q.** And the MIC (S. aureus strains; [15])?
**A.** 1 µg/mL

**Q.** And the MIC (S. aureus strains; [16])?
**A.** 2 µg/mL

**Q.** What about the MIC (S. aureus strains; Strain 9, hVISA, read-out: MIC) of the same molecule?
**A.** 2 µg/mL

**Q.** And the MIC (S. aureus strains; [17])?
**A.** 2 µg/mL

**Q.** What about the MIC (S. aureus strains; [18]) of the same molecule?
**A.** 1 µg/mL

**Q.** And the MIC (S. aureus strains; [19])?
**A.** 0.5 µg/mL

**Q.** And the MIC (S. aureus strains; [20])?
**A.** 1 µg/mL

**Q.** What about the MIC (S. aureus strains; [21]) of the same molecule?
**A.** 1 µg/mL

**Q.** And the MIC (S. aureus strains; [22])?
**A.** 2 µg/mL

**Q.** What about the MIC (S. aureus strains; [23]) of the same molecule?
**A.** 2 µg/mL

**Q.** And the MIC (S. aureus strains; [24])?
**A.** 0.5 µg/mL

**Q.** What about the MIC (S. aureus strains; [25]) of the same molecule?
**A.** 0.5 to 2 µg/mL
